From the NIST ThermoML archive (doi:10.1016/j.fluid.2015.08.007) come the findings set out here.

Several values for one entry are separate records, joined by “and”; a condition that tells them apart may be missing. Equal values may be shown once. ± gives the expanded uncertainty stated by the source.

The conditions of one data set: Crystal 1; DTA.
For `CCCC[N+]1(C)CCCC1.[Br-]` [1-butyl-1-methylpyrrolidinium bromide], the Normal melting temperature was determined as 204 ± 2 °C.

The same data set, now with this note: Crystal; DTA.
For `CC[N+]1(C)CCCC1.O=S(=O)([N-]S(=O)(=O)C(F)(F)F)C(F)(F)F`, the Normal melting temperature turned out to be 91 ± 2 °C.
Same read-out and setting: in the case of `CCCC[N+]1(C)CCCC1.[Br-]` [1-butyl-1-methylpyrrolidinium bromide] it was 204 ± 2 °C.
As to `CCCC[N+]1(C)CCCC1.[Cl-]` [1-butyl-1-methylpyrrolidinium chloride], the Normal melting temperature was 201 ± 2 °C and 204 ± 2 °C.
For `CCCC[N+]1(C)CCCC1.F[B-](F)(F)F` [1-butyl-1-methylpyrrolidinium tetrafluoroborate], the Normal melting temperature is 152 ± 2 °C and 151 ± 2 °C.
Same read-out and setting: next, `CC[N+]1(C)CCCC1.F[B-](F)(F)F` [1-ethyl-1-methylpyrrolidinium tetrafluoroborate]: 66 ± 2 °C.
